Laboratory results published in patent US11337950B2, “Biologically active cannabidiol analogs” (University of Mississippi, priority 2016, dated 2022).
Entries after “also recorded” stand apart in the source; their conditions may differ. Structures can show the parent of a compound that is named as a salt. Where two headings read alike, the source gives them in different places.

How the values were obtained:
[1] = In vivo eye tissue levels 90 min after topical application in Tocrisolve emulsion (Examples 12-14); set-up: species or system New Zealand albino rabbits; settings: for concentration at 90 min: male, New Zealand albino, 90 min post topical 50 μL Tocrisolve emulsion; for Penetration into the ocular tissues, in words (Example 14): topical Tocrisolve emulsion
Method: Conscious male New Zealand albino rabbits were used. The formulations were applied topically into the rabbits eyes (50 μL containing the equivalent of 250 μg CBD) in Tocrisolve® emulsion formulations as described in Example 11. The animals were sacrificed 90 min. after drug application and the eye tissues harvested for analysis.
The same procedure was followed as shown under Example 12. Additional CBD analogs were tested in this example. In this example the tissue levels of both free CBD and intact analog were determined.
Formulations: Fifty microlitres of 0.5% w/v CBD in Tocrisolve emulsion (Dose: 0.25 mg)
Animal model: Conscious male new Zealand albino rabbits, Duration of the study: 90 min.
Aqueous humor, Vitreous humor, Retina-Choroid and Iris-Ciliary bodies analysed for parent compound as well as CBD.
Formulations: Fifty microlitres of 0.5% w/v Tocrisolve emulsion formulations (Dose: 0.25 mg)
Animal model: Conscious male new Zealand albino rabbits, Duration of the study: 90 min

[2] = Solubility of CBD and its analogs in Tocrisolve emulsion; format: physicochemical; settings: for Maximum solubility achieved in Tocrisolve: as the substance itself
Method: Formulations: 0.5% w/v CBD equivalent in Tocrisolve emulsion.
Tocrisolve composition: […] emulsion composed of a 1:4 ratio of soya oil/water that is emulsified with the block co-polymer Pluronic F68. Manufacturing process for the Tocrisolve emulsion: • Add accurately weighed amount of drug a glass vial. • Add required volume of Torcisolve blank emulsion to each vial • Vortex each vial for 5 minutes. • Sonicate each vial for 10 minutes. • Centrifuge each vial for 5 minutes at 9000 rpm at 25° C. • Collect the supernatant and analyze for CBD, CBD-Val Mono and CBD-Val-HS mono as applicable.

[3] = Bioavailability of CBD from suppository formulations containing CBD-Val-HS (Example 15); format: in vivo; settings: cannulated rats, rectal suppository; PEG 1000 (7 mg) vs Wecobe W (6.125 or 4.625 mg)
Method: CBD-Val-HS was formulated in both lipophilic (Wecobe W base) and hydrophilic (PEG 1000 base) suppository formulations. The formulations were administered to cannulated rats (100 mg suppository per rat) and blood samples were collected, centrifuged and the plasma separated for LC/MS/MS analysis. The amount of CBD in the plasma samples was quantified. The amount of CBD-Val-HS in the plasma samples was not quantified.

[4] = format: physicochemical; settings: for Stability under acidic (gastric juice) conditions, in words: pH 1.2, 37° C.; for Stability under physiologic / intestinal juice conditions, in words: pH 7.4, 37° C.; for Concentration of CBD / Concentration of Δ^9-THC: CBD incubated, 37° C.
Method: The stability CBD and CBD analogs (CBD-Mono-VHS and CBD-Di-VHS) was evaluated under acidic and alkaline conditions to simulate exposure to gastric and intestinal fluids. The procedure is outlined as follows: • 1. Stock solution of 5 mg/mL CBD, CBD-Mono-Val-Mono HS, CBD-Di-Val-Di HS was prepared. • 2. Simulated Gastric Fluid (pH 1.2)+1% (SDS) was prepared and kept in 37° C. water bath. • 3. Physiological buffer (pH 7.4)+1% SDS was prepared and kept in 37° C. water bath. • 4. 100 μL of CBD, CBD-Mono-Val-Mono HS or CBD-Di-Val-Di-HS stock in acetonitrile (equivalent to 500 μg) was spiked into separate vials containing 5 ml of either pH 1.2 and 7.4. • 5. At each time point, 100 μL of the solution was withdrawn. • 6. 900 μL acetonitrile was added to each sample. • 7. All samples centrifuged at 4° C. and 13,000 rpm. • 8. 100 μL of the supernatant was withdrawn; to this 100 μL of supernatant, 900 μL of acetonitrile was added and placed in LC vials for analysis. Tables 9, 10 and 11, and FIGS. 7a, 7b, 18, and 19 show the results.

[5] = tested on: cisplatin-induced tactile allodynia; assay: Cisplatin-induced tactile allodynia model, electronic von Frey (Examples 23, 24); format: in vivo, C57BL/6 mice; settings: mice
[6] = tested on: morphine place preference; assay: Morphine conditioned place preference, model of addiction (Example 25); settings: mice
[7] = rabbit eye, 90 min post topical, 250 μg CBD equivalent

C=C(C)C1CCC(C)=CC1c1c(OC(=O)[C@@H](NC(=O)CCC(=O)O)C(C)C)cc(CCCCC)cc1OC(=O)[C@@H](NC(=O)CCC(=O)O)C(C)C (stereo partly shown) [CBD-VAL-HS]
concentration at 90 min ([1]; retina-choroid, Table 4, Set 2, rabbit, dose 250 μg, read-out: Analog Concentration, Retina Choroid): 142 ± 76 ng/g

CBD-Mono-Valinate [CBD-VAL-MONO]
Maximum solubility achieved in Tocrisolve [2]: 1.41 % w/v | Maximum solubility achieved in Tocrisolve (In terms of CBD) [2]: (1.07) % w/v

C=C(C)C1CCC(C)=CC1c1c(OC(=O)[C@@H](NC(=O)CCC(=O)O)C(C)C)cc(CCCCC)cc1OC(=O)[C@@H](NC(=O)CCC(=O)O)C(C)C (stereo partly shown) [CBD-Val-HS, CBD-Di-Valinate-Di-Hemisuccinate]
Penetration into the ocular tissues, in words (Example 14) ([1]; rabbit eye): not adequate | Plasma levels of CBD, hydrophilic base compared with lipophilic base, in words [3]: Higher levels of CBD | Stability under acidic (gastric juice) conditions, in words [4]: stable | Stability under physiologic / intestinal juice conditions, in words [4]: stable

C=C(C)C1CCC(C)=CC1c1c(OC(=O)[C@@H](N)C(C)C)cc(CCCCC)cc1OC(=O)[C@@H](N)C(C)C (stereo partly shown) [CBD-di-Val, CBD-Di-Valinate]
Penetration into the ocular tissues, in words (Example 14) ([1]; rabbit eye): not adequate

C=C(C)C1CCC(C)=CC1c1c(OC(=O)[C@@H](NC(=O)CCC(=O)O)C(C)C)cc(CCCCC)cc1OC(=O)[C@@H](NC(=O)CCC(=O)O)C(C)C (stereo partly shown) [CBD-Val-HS]
concentration at 90 min ([1]; aqueous humor, Table 2, rabbit eye, 250 μg CBD equivalent, read-out: Concentration of CBD-Val-HS in Aqueous Humor): 24.6 ± 16.2 ng/g | concentration at 90 min ([1]; retina-choroid, Table 2, rabbit eye, 250 μg CBD equivalent, read-out: Concentration of CBD-Val-HS in Retina Choroid): 417 ± 114 ng/g | concentration at 90 min ([1]; vitreous humor, Table 2, rabbit eye, 250 μg CBD equivalent, read-out: Concentration of CBD-Val-HS in Vitreous Humor): 612 ± 264 ng/g

C=C(C)C1CCC(C)=CC1c1c(OC(=O)[C@@H](N)C(C)C)cc(CCCCC)cc1OC(=O)[C@@H](N)C(C)C (stereo partly shown) [CBD-Val-HCl]
Maximum solubility achieved in Tocrisolve [2]: 2.04 % w/v | Maximum solubility achieved in Tocrisolve (In terms of CBD) [2]: (1.09) % w/v | concentration at 90 min ([1]; retina-choroid, Table 2, rabbit eye, 250 μg CBD equivalent, read-out: Concentration of CBD-Val in Retina Choroid): 9.1 ± 1.5 ng/g | Ocular tissue levels, in words (Example 12) [1, 7]: very low levels in the retina choroid

C=C(C)C1CCC(C)=CC1c1c(OC(=O)CCC(=O)O)cc(CCCCC)cc1OC(=O)CCC(=O)O (stereo not shown) [CBD-HS, CBD-Di-Hemisuccinate]
Maximum solubility achieved in Tocrisolve [2]: 1.12 % w/v | Maximum solubility achieved in Tocrisolve (In terms of CBD) [2]: (0.7) % w/v | Penetration into the ocular tissues, in words (Example 14) ([1]; rabbit eye): not adequate

C=C(C)[C@@H]1CCC(C)=C[C@H]1c1c(O)cc(CCCCC)cc1O [CBD, Cannabidiol]
Maximum solubility achieved in Tocrisolve [2]: 1.19 % w/v | concentration at 90 min ([1]; retina-choroid, Table 2, rabbit eye, 250 μg CBD equivalent, read-out: Concentration of CBD in Retina Choroid): 17.3 ± 6.5 ng/g | Ocular tissue levels of the applied substance, in words (Example 13) ([1]; rabbit eye, 90 min post topical, 0.25 mg CBD): no levels in the tissues at all | Ocular tissue levels, in words (Example 12) [1, 7]: very low levels in the retina choroid | Concentration of CBD ([4]; Acid (pH 1.2), Time Point 0): 656 ng/mL | Concentration of Δ^9-THC ([4]; Acid (pH 1.2), Time Point 0): 38 ng/mL | Concentration of CBD ([4]; Acid (pH 1.2), Time Point 15): 553 ng/mL | Concentration of Δ^9-THC ([4]; Acid (pH 1.2), Time Point 15): 238 ng/mL | Concentration of CBD ([4]; Acid (pH 1.2), Time Point 30): 204 ng/mL | Concentration of Δ^9-THC ([4]; Acid (pH 1.2), Time Point 30): 243 ng/mL | Concentration of CBD ([4]; Acid (pH 1.2), Time Point 60): 111 ng/mL | Concentration of Δ^9-THC ([4]; Acid (pH 1.2), Time Point 60): 496 ng/mL | Concentration of CBD ([4]; Acid (pH 1.2), Time Point 90): 91 ng/mL | Concentration of Δ^9-THC ([4]; Acid (pH 1.2), Time Point 90): 625 ng/mL | Concentration of CBD ([4]; Acid (pH 1.2), Time Point 120): 46 ng/mL | Concentration of Δ^9-THC ([4]; Acid (pH 1.2), Time Point 120): 454 ng/mL | Concentration of CBD ([4]; Base (pH 7.4), Time Point 0): 760 ng/mL | Concentration of CBD ([4]; Base (pH 7.4), Time Point 15): 943 ng/mL | Concentration of CBD ([4]; Base (pH 7.4), Time Point 30): 1015 ng/mL | Concentration of CBD ([4]; Base (pH 7.4), Time Point 60): 1119 ng/mL | Concentration of CBD ([4]; Base (pH 7.4), Time Point 90): 1081 ng/mL | Concentration of CBD ([4]; Base (pH 7.4), Time Point 120): 975 ng/mL | Conversion to Δ^9-THC under acidic conditions, in words ([4]; acidic conditions): converts to Δ^9-THC | Stability under acidic (gastric juice) conditions, in words [4]: partially converted to THC | Stability under physiologic / intestinal juice conditions, in words [4]: stable | Effect on cisplatin-induced tactile allodynia (eVF paw withdrawal), in words ([5]; Example 23, 1.0 mg/kg CBD in combination with 0.1 mg/kg morphine, IP): did not further alter the anti-allodynic properties | Effect on cisplatin-induced tactile allodynia (eVF paw withdrawal), in words ([5]; Example 23, 1.0 mg/kg IP alone, 45 minutes prior to testing): modest attenuation of CIN | Effect on cisplatin-induced tactile allodynia (eVF paw withdrawal), in words ([5]; Example 23, 2.0 mg/kg CBD in combination with 0.1 mg/kg morphine, IP): attenuated tactile allodynia comparable to 2.5 mg/kg morphine | Effect on cisplatin-induced tactile allodynia (eVF paw withdrawal), in words ([5]; Example 23, 2.0 mg/kg CBD in combination with 2.5 mg/kg morphine, IP): not further enhanced | Effect on cisplatin-induced tactile allodynia (eVF paw withdrawal), in words ([5]; Example 23, 2.0 mg/kg IP alone, 45 minutes prior to testing): ineffective | Effect on morphine place preference, in words ([6]; morphine groups, IP, CBD 2.5-20.0 mg/kg, CBD-val-HS 10.0 mg/kg): dose-dependently decreased preference scores that approached significance at 10 mg/kg CBD; also recorded: showed a tendency to block the addictive effects of morphine | Place preference or aversion of the substance itself, in words ([6]; saline groups, IP, CBD 2.5-20.0 mg/kg, CBD-val-HS 10.0 mg/kg): did not show neither place preference nor aversion

CN1CC[C@]23c4c5ccc(O)c4O[C@H]2[C@@H](O)C=C[C@H]3[C@H]1C5.O=S(=O)(O)O [morphine, Morphine sulfate]
Effect on cisplatin-induced tactile allodynia (eVF paw withdrawal), in words ([5]; Example 23, 0.1 mg/kg IP alone, 45 minutes prior to testing): did not affect eVF responses | Effect on cisplatin-induced tactile allodynia (eVF paw withdrawal), in words ([5]; Example 23, 2.5 mg/kg IP alone, 45 minutes prior to testing): fully attenuated tactile allodynia | Effect on cisplatin-induced tactile allodynia (eVF paw withdrawal), in words ([5]; Example 24, 0.1 mg/kg IP alone): did not affect eVF responses | Effect on cisplatin-induced tactile allodynia (eVF paw withdrawal), in words ([5]; Example 24, 2.5 mg/kg IP alone): fully attenuated tactile allodynia | Conditioned place preference scores, in words ([6]; morphine treated vs control group (vehicle+saline)): higher preference scores compared to the control group
